{"source": "patent US20190002825A1", "about": "“Method for Inducing Targeted Differentiation of Human Stem Cells Toward Hepatic Cells” (TRANSCEND CYTOTHERAPY CO., LTD, priority 2015, published 2019)", "key": {"[1]": {"conditions": "in vivo; cited from earlier work"}, "[2]": {"conditions": "in vivo; cited from earlier work", "remark": "listed apart in the source"}, "Wnt signaling pathway": {"system": "Wnt signaling pathway", "conditions": "cited from earlier work"}, "[3]": {"system": "CDC2, ERK2 and other kinases", "conditions": "cited from earlier work"}, "TGF-β type II receptors": {"target": "TGF-β type II receptors (Homo sapiens, UniProt P37173)", "sequence (P37173 23-567)": "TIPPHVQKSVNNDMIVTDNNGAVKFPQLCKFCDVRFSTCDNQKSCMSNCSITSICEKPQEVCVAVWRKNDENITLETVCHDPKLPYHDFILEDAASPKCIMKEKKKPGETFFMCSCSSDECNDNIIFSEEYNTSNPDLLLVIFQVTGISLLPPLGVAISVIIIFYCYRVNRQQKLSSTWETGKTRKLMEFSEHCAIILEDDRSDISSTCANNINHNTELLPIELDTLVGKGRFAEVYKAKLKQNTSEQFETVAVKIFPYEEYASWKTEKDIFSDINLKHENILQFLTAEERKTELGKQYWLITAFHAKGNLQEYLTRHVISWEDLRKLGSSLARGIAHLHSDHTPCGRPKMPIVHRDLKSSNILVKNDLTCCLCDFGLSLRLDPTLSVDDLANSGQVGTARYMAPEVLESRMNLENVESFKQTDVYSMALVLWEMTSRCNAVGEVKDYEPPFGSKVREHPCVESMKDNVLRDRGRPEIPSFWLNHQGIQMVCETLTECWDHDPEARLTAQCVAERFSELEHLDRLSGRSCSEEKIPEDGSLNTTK", "conditions": "cited from earlier work"}, "BMP type II receptors": {"system": "BMP type II receptors", "conditions": "cited from earlier work"}, "[4]": {"system": "activin type II receptors", "conditions": "cited from earlier work"}, "[5]": {"target": "TGF-β receptor type II (TβRII) (Homo sapiens, UniProt P37173)", "sequence (P37173 23-567)": "as above", "conditions": "cell-free assays; cited from earlier work"}, "ROCK1": {"target": "ROCK1 (Homo sapiens, UniProt Q13464)", "sequence (Q13464 whole entry)": "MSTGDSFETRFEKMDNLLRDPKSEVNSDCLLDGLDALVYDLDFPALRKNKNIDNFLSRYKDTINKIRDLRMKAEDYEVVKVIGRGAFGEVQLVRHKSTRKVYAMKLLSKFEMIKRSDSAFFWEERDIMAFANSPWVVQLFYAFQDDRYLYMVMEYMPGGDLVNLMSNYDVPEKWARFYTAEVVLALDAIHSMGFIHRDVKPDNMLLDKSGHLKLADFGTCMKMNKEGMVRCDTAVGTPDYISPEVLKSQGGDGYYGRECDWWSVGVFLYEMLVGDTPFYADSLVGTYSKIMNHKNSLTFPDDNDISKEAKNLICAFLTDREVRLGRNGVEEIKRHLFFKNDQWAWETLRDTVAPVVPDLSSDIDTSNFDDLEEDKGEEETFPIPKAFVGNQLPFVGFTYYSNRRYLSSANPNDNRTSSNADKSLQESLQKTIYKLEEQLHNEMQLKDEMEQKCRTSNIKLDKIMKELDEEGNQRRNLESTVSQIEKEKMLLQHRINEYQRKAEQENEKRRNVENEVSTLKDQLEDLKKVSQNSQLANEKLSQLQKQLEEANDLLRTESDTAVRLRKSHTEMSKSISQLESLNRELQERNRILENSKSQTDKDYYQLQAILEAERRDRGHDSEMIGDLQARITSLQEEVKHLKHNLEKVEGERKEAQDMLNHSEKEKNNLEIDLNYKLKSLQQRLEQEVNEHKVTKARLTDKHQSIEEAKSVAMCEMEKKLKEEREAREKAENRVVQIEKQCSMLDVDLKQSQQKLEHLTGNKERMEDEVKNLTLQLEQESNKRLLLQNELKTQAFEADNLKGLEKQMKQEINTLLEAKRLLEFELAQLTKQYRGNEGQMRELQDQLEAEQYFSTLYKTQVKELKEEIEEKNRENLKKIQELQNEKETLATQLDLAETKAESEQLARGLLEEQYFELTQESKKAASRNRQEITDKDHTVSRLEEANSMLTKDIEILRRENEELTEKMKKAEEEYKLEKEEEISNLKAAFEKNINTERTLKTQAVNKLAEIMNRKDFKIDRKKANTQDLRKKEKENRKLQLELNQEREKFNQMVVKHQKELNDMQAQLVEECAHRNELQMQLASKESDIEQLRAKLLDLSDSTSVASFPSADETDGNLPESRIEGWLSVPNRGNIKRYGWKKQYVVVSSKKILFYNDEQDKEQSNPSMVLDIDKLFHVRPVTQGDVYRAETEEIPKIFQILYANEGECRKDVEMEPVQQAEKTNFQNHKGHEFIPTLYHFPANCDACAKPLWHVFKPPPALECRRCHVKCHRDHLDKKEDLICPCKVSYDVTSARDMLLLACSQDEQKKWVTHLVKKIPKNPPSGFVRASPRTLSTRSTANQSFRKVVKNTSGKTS", "conditions": "cited from earlier work"}, "ALK7": {"target": "T1, ALK7 (Homo sapiens, UniProt Q8NER5)", "T1 sequence (Q8NER5 21-493)": "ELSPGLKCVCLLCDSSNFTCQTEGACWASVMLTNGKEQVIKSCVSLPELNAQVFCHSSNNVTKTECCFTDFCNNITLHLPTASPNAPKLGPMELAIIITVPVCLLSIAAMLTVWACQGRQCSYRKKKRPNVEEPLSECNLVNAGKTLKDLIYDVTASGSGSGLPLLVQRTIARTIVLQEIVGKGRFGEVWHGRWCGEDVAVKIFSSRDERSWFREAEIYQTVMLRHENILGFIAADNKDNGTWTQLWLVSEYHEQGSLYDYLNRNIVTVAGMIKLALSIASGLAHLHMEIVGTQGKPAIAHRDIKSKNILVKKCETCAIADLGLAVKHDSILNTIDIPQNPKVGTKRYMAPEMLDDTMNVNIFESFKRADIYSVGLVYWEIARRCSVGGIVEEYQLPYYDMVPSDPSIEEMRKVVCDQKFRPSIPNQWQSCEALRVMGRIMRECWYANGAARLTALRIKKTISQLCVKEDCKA", "conditions": "in words; cited from earlier work"}, "ALK1, ALK2, ALK3 or ALK6": {"system": "ALK1, ALK2, ALK3 or ALK6", "conditions": "cited from earlier work"}, "ALK4": {"target": "T2, ALK4 (Homo sapiens, UniProt P36896)", "T2 sequence (P36896 24-505)": "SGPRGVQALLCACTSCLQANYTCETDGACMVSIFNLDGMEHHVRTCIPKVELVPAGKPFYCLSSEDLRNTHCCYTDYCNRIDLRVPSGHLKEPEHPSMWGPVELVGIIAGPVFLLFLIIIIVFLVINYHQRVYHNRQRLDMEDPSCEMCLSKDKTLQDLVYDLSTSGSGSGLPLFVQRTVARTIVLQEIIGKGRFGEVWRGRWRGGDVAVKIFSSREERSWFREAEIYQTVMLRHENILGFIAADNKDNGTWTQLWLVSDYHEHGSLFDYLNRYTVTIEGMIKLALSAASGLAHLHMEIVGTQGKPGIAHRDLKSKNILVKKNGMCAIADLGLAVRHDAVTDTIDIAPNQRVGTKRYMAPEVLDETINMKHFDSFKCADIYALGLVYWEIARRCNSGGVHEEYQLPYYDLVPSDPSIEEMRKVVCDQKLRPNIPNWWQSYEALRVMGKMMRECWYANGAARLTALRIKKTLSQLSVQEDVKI", "conditions": "cited from earlier work"}, "ALK2, ALK3 and ALK6": {"system": "ALK2, ALK3 and ALK6", "conditions": "cited from earlier work"}, "[6]": {"system": "p38, MAPK and other kinases", "conditions": "cited from earlier work"}, "GSK-3β": {"target": "GSK-3β (Homo sapiens, UniProt P49841)", "sequence (P49841 whole entry)": "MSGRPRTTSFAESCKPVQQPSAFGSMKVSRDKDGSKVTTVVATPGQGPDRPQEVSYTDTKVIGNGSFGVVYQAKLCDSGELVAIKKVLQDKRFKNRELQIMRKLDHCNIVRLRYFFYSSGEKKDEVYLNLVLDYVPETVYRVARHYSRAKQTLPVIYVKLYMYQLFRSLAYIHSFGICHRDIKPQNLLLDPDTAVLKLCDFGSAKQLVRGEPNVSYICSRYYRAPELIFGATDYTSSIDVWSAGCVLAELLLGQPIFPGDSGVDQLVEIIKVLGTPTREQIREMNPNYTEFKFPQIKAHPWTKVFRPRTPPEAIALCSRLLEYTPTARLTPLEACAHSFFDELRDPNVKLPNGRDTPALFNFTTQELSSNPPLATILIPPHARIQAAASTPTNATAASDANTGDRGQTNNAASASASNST", "conditions": "cited from earlier work"}, "[7]": {"system": "human embryonic stem cells (hESCs)", "conditions": "cited from earlier work"}, "ROCK": {"system": "ROCK", "conditions": "cell-free assays; cited from earlier work"}, "[8]": {"system": "PKC, cAMP-dependent protein kinases, MLCK and PAK", "conditions": "cited from earlier work"}, "CYP1A2": {"system": "CYP1A2", "format": "cell-based, human"}, "GSK-3α": {"target": "GSK-3α (Homo sapiens, UniProt P49840)", "sequence (P49840 whole entry, species assumed)": "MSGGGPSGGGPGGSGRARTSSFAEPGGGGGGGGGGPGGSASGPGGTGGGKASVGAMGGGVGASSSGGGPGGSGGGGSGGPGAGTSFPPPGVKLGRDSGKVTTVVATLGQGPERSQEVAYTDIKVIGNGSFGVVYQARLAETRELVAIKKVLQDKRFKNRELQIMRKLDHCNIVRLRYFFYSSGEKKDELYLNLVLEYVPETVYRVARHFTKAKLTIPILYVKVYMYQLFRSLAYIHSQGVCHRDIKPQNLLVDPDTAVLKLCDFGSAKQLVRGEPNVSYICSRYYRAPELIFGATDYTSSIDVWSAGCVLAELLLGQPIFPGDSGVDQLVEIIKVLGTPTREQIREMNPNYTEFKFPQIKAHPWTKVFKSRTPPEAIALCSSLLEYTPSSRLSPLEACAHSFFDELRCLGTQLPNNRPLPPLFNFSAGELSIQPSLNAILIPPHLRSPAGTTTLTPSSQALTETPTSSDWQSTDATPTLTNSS", "conditions": "cited from earlier work"}, "TGF-βRII": {"target": "TGF-βRII (Homo sapiens, UniProt P37173)", "sequence (P37173 23-567)": "as the sequence (P37173 23-567) above", "conditions": "cited from earlier work"}}, "data": [{"molecule": "N#Cc1ccc2[nH]c(O)c(-c3ccc(CN4CCOCC4)cn3)c2c1", "note": "[AZD1080]", "values": [{"measurement": "oral bioavailability", "setting": "[1]", "result": "orally bioavailable"}, {"measurement": "permeability to the brain", "setting": "[2]", "result": "permeable to the brain"}]}, {"molecule": "CN1CCN(S(=O)(=O)c2ccc(-c3cnc(N)c(C(=O)Nc4cccnc4)n3)cc2)CC1", "note": "[AZD2858]", "values": [{"measurement": "effect on the Wnt signaling pathway", "setting": "Wnt signaling pathway", "result": "enhances"}]}, {"molecule": "Cc1cnc(-c2cnc(NCCNc3ccc(C#N)cn3)nc2-c2ccc(Cl)cc2Cl)[nH]1", "note": "[CHIR-99021]", "values": [{"measurement": "times more inhibitory on GSK-3α and GSK-3β than on CDC2, ERK2 and other kinases", "setting": "[3]", "result": 500, "unit": "times"}]}, {"molecule": "Cc1cccc(-c2[nH]c(CNc3ccccc3F)nc2-c2ccc3ncnn3c2)n1", "note": "[EW-7197]", "values": [{"measurement": "oral bioavailability", "setting": "[1]", "result": "orally bioavailable"}]}, {"molecule": "O=C(NC1CCOCC1)c1ccc(-c2cc(-c3c[nH]nc3-c3ccccn3)ccn2)cc1", "note": "[GW788388]", "values": [{"measurement": "inhibition of the activity of TGF-β type II receptors", "setting": "TGF-β type II receptors", "result": "inhibits"}, {"measurement": "inhibition of the activity of BMP type II receptors", "setting": "BMP type II receptors", "result": "does not inhibit"}, {"measurement": "inhibition of the activity of activin type II receptors", "setting": "[4]", "result": "inhibits"}]}, {"molecule": "c1ccc(-c2nn3c(c2-c2ccnc4cc(OCCN5CCOCC5)ccc24)CCC3)nc1", "note": "[LY2109761]", "values": [{"measurement": "Ki", "setting": "[5]", "result": 0.3, "unit": "µM"}]}, {"molecule": "O=C(NCc1cccc(O)c1)Nc1nc(-c2ccncc2)cs1", "note": "[RKI-1447]", "values": [{"measurement": "IC50", "setting": "ROCK1", "result": 0.0145, "unit": "µM"}]}, {"molecule": "Cc1cccc(-c2[nH]c(C(C)(C)C)nc2-c2ccc3c(c2)OCO3)n1", "note": "[SB505124]", "values": [{"measurement": "inhibition of ALK7", "setting": "ALK7", "result": "inhibits"}, {"measurement": "inhibition of ALK1, ALK2, ALK3 or ALK6", "setting": "ALK1, ALK2, ALK3 or ALK6", "result": "does not inhibit"}, {"measurement": "IC50", "setting": "ALK4; cell-free assays where stated", "result": 0.129, "unit": "µM"}]}, {"molecule": "Cc1cccc(-c2[nH]c(C(C)(C)C)nc2-c2ccc3nccnc3c2)n1", "note": "[SB525334]", "values": [{"measurement": "effect on ALK4, times lower than on ALK5", "setting": "ALK4", "result": 4, "unit": "times"}, {"measurement": "activity on ALK2, ALK3 and ALK6", "setting": "ALK2, ALK3 and ALK6", "result": "no activity"}]}, {"molecule": "NC(=O)c1ccc(-c2nc(-c3ccc4c(c3)OCO4)c(-c3ccccn3)[nH]2)cc1", "note": "[SB-431542]", "values": [{"measurement": "times more inhibitory on ALK5 than on p38, MAPK and other kinases", "setting": "[6]", "result": 100, "unit": "times"}]}, {"molecule": "Nc1cccc(-c2cc3c(Oc4cccc(O)c4)ncnc3[nH]2)c1", "note": "[TWS119]", "values": [{"measurement": "IC50", "setting": "GSK-3β", "result": 0.03, "unit": "µM"}]}, {"molecule": "O=C(NCc1ccccc1)c1csc(Nc2ccncn2)n1", "note": "[Thiazovivin]", "values": [{"measurement": "survival of human embryonic stem cells (hESCs) after single cell isolation", "setting": "[7]", "result": "promotes the survival"}, {"measurement": "IC50", "setting": "ROCK", "result": 0.5, "unit": "µM"}]}, {"molecule": "C[C@@H](N)[C@H]1CC[C@H](C(=O)Nc2ccncc2)CC1", "note": "[Y-27632]", "values": [{"measurement": "times more inhibitory on ROCK1 than on other kinases including PKC, cAMP-dependent protein kinases, MLCK and PAK", "setting": "[8]", "result": "≥ 200", "unit": "times"}]}, {"molecule": "COc1ccc2[nH]c([S+]([O-])Cc3ncc(C)c(OC)c3C)nc2c1", "note": "(centres unmarked) [omeprazole]", "values": [{"measurement": "activity of P450 enzyme (CYP1A2) when induced", "setting": "CYP1A2", "result": "enhanced"}]}, {"molecule": "CHIR-98014", "values": [{"measurement": "IC50", "setting": "GSK-3α", "result": 0.00065, "unit": "µM"}]}, {"molecule": "SD-208", "values": [{"measurement": "times more selective on TGF-βRI than on TGF-βRII", "setting": "TGF-βRII", "result": "≥ 100", "unit": "times"}]}]}
